The structures appear in SMILES notation. Where two headings read alike, the source gives them in different places.

For orientation: IC50 means the concentration that gives 50% inhibition. The term viability denotes a read-out of living cells in per cent, often relative to untreated cells.

Common to all, as to format: cell-based, human
Assay [1] deals with A549 cells. Kind of assay: Dose-dependent CCK8 viability assay. The settings on record: Homo sapiens, 48 hours. The method, then:
In this example, dose-dependent CCK8 Viability assay was performed to determine the IC50 (the concentration of compound to achieve 50% viability) of several of the hit compounds identified from Example 2. A variety of cell lines were used: • Jurkat cells: Human leukemia • A549 cells: Human NSCLC • KP-1 cells: Mouse NSCLC with KRAS and P53 mutations • MCF-7 cells: Human breast cancer
Method for Adherent Cells (A549, MCF-7 and KP-1 Cells)
5000 cells/100 uL were seeded in 96-well plates and incubate at 37° C.+5% CO2 overnight. Media were replaced with 100 uL of compound per well in 6 replicates in a series of 2-fold dilutions. The following controls were prepared.
(§1) Blank control: 100 uL 0.1% DMSO in media with no cells per well.
(§2) Positive control: 100 uL of 10 uM 5-flurouracil per well.
(§3) Negative control: 100 uL of 0.1% DMSO in media per well.
Each 96-well plate included 1 compound in 7 concentrations and a complete set of controls (in 6 replicates).
Cells were incubated at 37° C.+5% CO2 for 46 hours. 10 uL of CCK8 solution was added to each well. Cells were incubated at 37° C.+5% CO2 for 2 hours. Absorbance at 450 nm was measured using a multiplate reader.
(§4) Viability was calculated using the equation: […]

The nature of assay [2]: Single-dose CCK-8 cell viability screening (adherent cells). The settings on record: Homo sapiens, average of A549 and Jurkat % viability, 50 uM, 48 h. The method, then:
(§5) In this example, the anti-cancer properties of the BB analogues described in Table 1d were evaluated. Single-dose screening approach is used for initial testing to assess the cytotoxic effect of the BB analogues (also referred to as ‘BB compounds’) on Jurkat cells (human T cell leukaemia cells) and A549 cells (human lung cancer cells).
(§6) Method for Adherent Cells (A549 Cells)
(§7) In this example, 5000 cells/100 uL were seeded in 96-well plates and incubate at 37° C.+5% CO2 overnight. Media were replaced with 100 uL of 50 uM compound per well in 6 replicates. The following controls were prepared.
as §1, §2, §3
(§8) Each 96-well plate included 7 compounds and the complete set of controls (in 6 replicates).
(§9) Cells were incubated at 37° C.+5% CO2 for 46 hours. 10 uL of CCK8 solution was added to each well. Cells were then incubated at 37° C.+5% CO2 for 2 hours. Absorbance at 450 nm was measured using a multiplate reader.
as §4
(§10) The benchmark in Table 2 was used to define the activities of each compound.

For assay [3], the system named is A549 cells. The description is as above. The conditions noted are these: Homo sapiens, A549, 48 h, read-out: % Viability (50 uM, 48 h) A549. How it is done: as §5, §6, §7, §1, §2, §3, §8, §9, §4, §10
In assay [4] the test system is Jurkat cells. Nature of the assay: Single-dose CCK-8 cell viability screening (suspension cells). The conditions noted are these: Homo sapiens, Jurkat, 48 h. The method, then:
as §5
Method for Suspension Cells (Jurkat Cells)
5000 cells/90 uL were seeded in 96-well plates. 10 uL of 500 uM compound (10×) was added to each well in 6 replicates. The following controls were prepared.
Blank control: 10 uL 1% DMSO in media with no cells per well.
Positive control: 10 uL of 100 uM 5-flurouracil (10×) per well.
Negative control: 10 uL of 1% DMSO in media (10×) per well.
Each 96-well plate included 7 BB analogues and the complete set of controls (in 6 replicates).
as §9, §4, §10

[5] abbreviates: read-out: % Viability (50 uM, 48 h) Jurkat.
The mark [6] stands for this setting: Jurkat cells, 50 uM, CCK-8, read-out: % Viability (50 uM, 48 h) Jurkat.

Molecule `CC(C)(C)[C@]1(O)C[C@@H]2OC(=O)C[C@@]23C(=O)O[C@@H]2N(CC45CC6CC(CC(C6)C4)C5)C(=O)[C@H](OC(=O)c4ccccc4)[C@]213` [SCC363, (3aS,5aS,8R,8aS,9R,10aS)-6-(adamantan-1-ylmethyl)-9-(tert-butyl)-9-hydroxy-2,4,7-trioxooctahydro-4H,9H-furo[3″,2″:2′,3′]cyclopenta[1′,2′:3,4]furo[2,3-b]pyrrol-8-yl benzoate] showed an IC50 in assay [1] of 9.99 µM.

For `CC(C)(C)[C@]1(O)C[C@@H]2OC(=O)C[C@@]23C(=O)O[C@@H]2N(c4ccc(N5CCOCC5)cc4)C(=O)[C@H](O)[C@]213` [XBB-042, (3aS,5aS,8R,8aS,9R,10aS)-9-(tert-butyl)-8,9-dihydroxy-6-(4-morpholinophenyl)tetrahydro-4H,9H-furo [3″,2″:2′,3′]cyclopenta [1′,2′:3,4]furo [2,3-b]pyrrole-2,4,7(3H,8H)-trione], the viability at 50 µM in assay [2] (A549, 48 h) is 96.7%; in assay [3] it was 95.6%; in assay [4] (setting [5]), 97.8%.

With `Cc1cccc(N2C(=O)[C@H](OC(=O)c3ccccc3)[C@@]34[C@@H]2OC(=O)[C@@]32CC(=O)O[C@H]2C[C@@]4(O)C(C)(C)C)c1` [P-33, (3aS,5aS,8R,9R,10aS)-9-(tert-butyl)-9-hydroxy-2,4,7-trioxo-6-(3-methylphenyl)octahydro-4H,9H-furo [3″,2″:2′,3′]cyclopenta [1′,2′:3,4]furo [2,3-b]pyrrol-8-yl benzoate], the viability at 50 µM in assay [2] (A549, 48 h) turned out to be 63.5%; in assay [3] (A549 cells, 50 uM, 48 h, CCK-8), 61.1%; in assay [4] (setting [6]), 66%.

On to `CC(C)(C)[C@]1(O)C[C@@H]2OC(=O)C[C@@]23C(=O)O[C@@H]2N(c4ccc(N5CCOCC5)cc4)C(=O)[C@H](OC(=O)c4ccccc4)[C@]213` [XBB-038, (3aS,5aS,8R,8aS,9R,10aS)-9-(tert-butyl)-9-hydroxy-6-(4-morpholinophenyl)-2,4,7-trioxooctahydro-4H,9H-furo [3″,2″:2′,3′]cyclopenta [1′,2′:3,4]furo [2,3-b]pyrrol-8-yl benzoate], for which the viability at 50 µM in assay [2] (A549, 48 h) worked out at 90.1%; in assay [3] (A549 cells, 50 uM, 48 h, CCK-8) it was 95.3%; in assay [4] (setting [6]), 84.8%.

Take `CC(=O)O[C@H]1C(=O)N(CCn2cc3ccccc3c2C)[C@H]2OC(=O)[C@]34CC(=O)O[C@H]3C=C(C(C)(C)C)[C@@]214` [XBB-054]: the viability at 50 µM amounted to 90.9% in assay [2] (A549, 48 h); 88.8% in assay [3] (A549 cells, 50 uM, 48 h, CCK-8); 93% in assay [4] (setting [6]).

Turning to `CC(C)(C)[C@]1(O)C[C@@H]2OC(=O)C[C@@]23C(=O)O[C@@H]2N(CC4COC4)C(=O)[C@H](OC(=O)c4ccccc4)[C@]213` [DW191, (3aS,5aS,8R,8aS,9R,10aS)-9-(tert-butyl)-6-(1-oxetan-3-ylmethyl)-9-hydroxy-2,4,7-trioxooctahydro-4H,9H-furo [3″,2″:2′,3′]cyclopenta [1′,2′:3,4]furo [2,3-b]pyrrol-8-yl benzoate], the viability at 50 µM in assay [2] (A549, 48 h) came out at 103%; in assay [3] (A549 cells, 50 uM, 48 h, CCK-8) it was 101%; in assay [4] (setting [6]), 105%.

As to `CC(C)(C)[C@]1(O)C[C@@H]2OC(=O)C[C@@]23C(=O)O[C@@H]2N(c4ccc5c(c4)OCO5)C(=O)[C@H](OC(=O)c4ccccc4)[C@]213` [XBB-039, (3aS,5aS,8R,8aS,9R,10aS)-6-(benzo[d][1,3]dioxol-5-yl)-9-(tert-butyl)-9-hydroxy-2,4,7-trioxooctahydro-4H,9H-furo [3″,2″:2′,3′]cyclopenta [1′,2′:3,4]furo [2,3-b]pyrrol-8-yl benzoate], the viability at 50 µM in assay [2] (A549, 48 h) is 74.1%; in assay [3] (A549 cells, 50 uM, 48 h, CCK-8) it was 78.4%; in assay [4] (setting [6]), 69.7%.

Regarding `CC(C)(C)[C@]1(O)C[C@@H]2OC(=O)C[C@@]23C(=O)O[C@@H]2N(c4ccc(C#N)cc4)C(=O)[C@H](OC(=O)c4ccccc4)[C@]213` [JW107, (3aS,5aS,8R,9R,10aS)-9-(tert-butyl)-6-(4-cyanophenyl)-9-hydroxy-2,4,7-trioxodecahydrofuro [3″,2″:2′,3′]cyclopenta [1′,2′:3,4]furo [2,3-b]pyrrol-8-yl benzoate], the viability at 50 µM is 72.7% in assay [2] (A549, 48 h); 75.2% in assay [3] (A549 cells, 50 uM, 48 h, CCK-8); 70.2% in assay [4] (setting [6]).

`Cc1ccc(N2C(=O)[C@H](OC(=O)c3ccccc3)[C@@]34[C@@H]2OC(=O)[C@@]32CC(=O)O[C@H]2C[C@@]4(O)C(C)(C)C)cc1` [P-30, (3aS,5aS,8R,9R,10aS)-9-(tert-butyl)-9-hydroxy-2,4,7-trioxo-6-(toluyl)octahydro-4H,9H-furo [3″,2″:2′,3′]cyclopenta [1′,2′:3,4]furo [2,3-b]pyrrol-8-yl benzoate]: the viability at 50 µM turned out to be 59.1% in assay [2] (A549, 48 h); 56.9% in assay [3] (A549 cells, 50 uM, 48 h, CCK-8); 61.3% in assay [4] (setting [6]).

Take `CC(C)(C)[C@]1(O)C[C@@H]2OC(=O)C[C@@]23C(=O)O[C@@H]2N(C[C@H]4CCCO4)C(=O)[C@H](OC(=O)c4ccccc4)[C@]213` [P-5, (3aS,5aS,8R,8aS,9R,10aS)-9-(tert-butyl)-9-hydroxy-2,4,7-trioxo-6-(((R)-tetrahydrofuran-2-yl)methyl) octahydro-4H,9H-furo [3″,2″:2′,3′]cyclopenta [1′,2′:3,4]furo[2,3-b]pyrrol-8-yl benzoate]: the viability at 50 µM in assay [2] (A549, 48 h) worked out at 87.2%; in assay [3] (A549 cells, 50 uM, 48 h, CCK-8) it was 98.7%; in assay [4] (setting [6]) it was 75.7%.

For the molecule `CC(C)(C)[C@]1(O)C[C@@H]2OC(=O)C[C@@]23C(=O)O[C@@H]2N(C45CC(C4)C5)C(=O)[C@H](OC(=O)c4ccccc4)[C@]213` [DW172, (3aS,5aS,8R,8aS,9R,10aS)-6-(bicyclo[1.1.1]pentan-1-yl)-9-(tert-butyl)-9-hydroxy-2,4,7-trioxooctahydro-4H,9H-furo [3″,2″:2′,3′]cyclopenta [1′,2′:3,4]furo[2,3-b]pyrrol-8-yl benzoate], the values for the viability at 50 µM in assay [2], in assay [3] and in assay [4] (setting [5]) were 96.6%, 98.7% and 94.4%, respectively.

Take `CC(C)(C)[C@]1(O)C[C@@H]2OC(=O)C[C@@]23C(=O)O[C@@H]2N(C4CCCC4)C(=O)[C@H](OC(=O)c4ccccc4)[C@]213` [JW081, (3aS,5aS,8R,8aS,9R,10aS)-9-(tert-butyl)-6-cyclopentyl-9-hydroxy-2,4,7-trioxooctahydro-4H,9H-furo[3″,2″:2′,3′]cyclopenta [1′,2′:3,4]furo[2,3-b]pyrrol-8-yl benzoate]: the viability at 50 µM was 88.3% in assay [2], 89.5% in assay [3] and 87.1% in assay [4] (setting [5]).

For the molecule `C=C(C)[C@@]1(C)C[C@@H]2OC(=O)C[C@@]23C(=O)O[C@@H]2OC(=O)[C@H](OC(C)=O)[C@]213` [XBB-009], the figures for the viability at 50 µM in assay [2], in assay [3] and in assay [4] (setting [5]) were 105%, 103% and 107%, respectively.

For the molecule `CC(C)(C)[C@]1(O)C[C@@H]2OC(=O)C[C@@]23C(=O)O[C@@H]2N(c4cc(F)cc(F)c4)C(=O)[C@H](OC(=O)c4ccccc4)[C@]213` [P-19, (3aS,5aS,8R,8aS,9R,10aS)-9-(tert-butyl)-9-hydroxy-2,4,7-trioxo-6-(3,5-difluoro-phenyl)octahydro-4H,9H-furo [3″,2″:2′,3′]cyclopenta [1′,2′:3,4]furo [2,3-b]pyrrol-8-yl benzoate], the viability at 50 µM came to 60.2% in assay [2] (A549, 48 h); 50.2% in assay [3] (A549 cells, 50 uM, 48 h, CCK-8); 70.2% in assay [4] (setting [6]).

`Cc1ccccc1N1C(=O)[C@H](OC(=O)c2ccccc2)[C@@]23[C@@H]1OC(=O)[C@@]21CC(=O)O[C@H]1C[C@@]3(O)C(C)(C)C` [P-34, (3aS,5aS,8R,9R,10aS)-9-(tert-butyl)-9-hydroxy-2,4,7-trioxo-6-(2-methylphenyl)octahydro-4H,9H-furo [3″,2″:2′,3′]cyclopenta [1′,2′:3,4]furo [2,3-b]pyrrol-8-yl benzoate]: the viability at 50 µM in assay [2] (A549, 48 h) came to 77%; in assay [3] (A549 cells, 50 uM, 48 h, CCK-8), 80.2%; in assay [4] (setting [6]) it was 73.8%.

(Values after patent publication US20250144069A1, “BILOBALIDE DERIVATIVE COMPOUNDS FOR TREATING NEUROLOGICAL DISEASES AND CANCERS” (The Chinese University of Hong Kong, priority 2023, published 2025).)
